Some targets named below: PIK3CA(E545A) (Homo sapiens, UniProt P42336, E545A); STK36 (Homo sapiens, UniProt Q9NRP7); MAP4K2 (Homo sapiens, UniProt Q12851); PRKX (Homo sapiens, UniProt P51817); EPHA5 (Homo sapiens, UniProt P54756); CAMK2A (Homo sapiens, UniProt Q9UQM7); GRK3 (Homo sapiens, UniProt P35626); MST1R (Homo sapiens, UniProt Q04912); PIK3CA (Homo sapiens, UniProt P42336); CSNK1G2 (Homo sapiens, UniProt P78368); MAP4K3 (Homo sapiens, UniProt Q8IVH8); KIT(V559D,T670I) (Homo sapiens, UniProt P10721, T670I/V559D); MYLK (Homo sapiens, UniProt Q15746); FLT3(ITD) (Homo sapiens, UniProt P36888, ITD); EGFR(E746-A750del) (Homo sapiens, UniProt P00533, DEL746-750).

Experiment in all cases: biochemical
What all share (parameters): DiscoverX KINOMEscan scanMAX competition binding panel, single concentration, percent of control; remaining binding: dose or concentration left out as unconfirmed
What all share (details): KINOMEscan binding, percent of control; read-out: Table S4_SCANMAX REPORT - related to Fig. 1 / Percent Control

The target of the next assay is T1, LKB1 (Homo sapiens, UniProt Q15831).
T1 construct: gene STK11

The target in assay [1] is T2, JAK1(JH1domain-catalytic) (Homo sapiens, UniProt P23458).
T2 construct: JH1domain-catalytic

The target in the next assay is T3, DRAK2 (Homo sapiens, UniProt O94768).
T3 construct: gene STK17B

The structures appear in SMILES notation.

Chain of PRKX (P51817 whole entry): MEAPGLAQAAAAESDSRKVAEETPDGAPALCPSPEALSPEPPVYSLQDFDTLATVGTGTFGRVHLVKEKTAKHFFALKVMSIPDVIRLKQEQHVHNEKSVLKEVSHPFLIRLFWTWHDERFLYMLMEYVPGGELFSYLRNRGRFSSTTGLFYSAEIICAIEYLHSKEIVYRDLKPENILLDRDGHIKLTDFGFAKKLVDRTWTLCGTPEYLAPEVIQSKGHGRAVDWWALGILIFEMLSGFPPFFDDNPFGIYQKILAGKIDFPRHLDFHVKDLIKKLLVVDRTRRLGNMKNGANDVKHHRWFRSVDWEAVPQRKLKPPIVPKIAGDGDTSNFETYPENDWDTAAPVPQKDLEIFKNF
Chain of CSNK1G2 (P78368 whole entry): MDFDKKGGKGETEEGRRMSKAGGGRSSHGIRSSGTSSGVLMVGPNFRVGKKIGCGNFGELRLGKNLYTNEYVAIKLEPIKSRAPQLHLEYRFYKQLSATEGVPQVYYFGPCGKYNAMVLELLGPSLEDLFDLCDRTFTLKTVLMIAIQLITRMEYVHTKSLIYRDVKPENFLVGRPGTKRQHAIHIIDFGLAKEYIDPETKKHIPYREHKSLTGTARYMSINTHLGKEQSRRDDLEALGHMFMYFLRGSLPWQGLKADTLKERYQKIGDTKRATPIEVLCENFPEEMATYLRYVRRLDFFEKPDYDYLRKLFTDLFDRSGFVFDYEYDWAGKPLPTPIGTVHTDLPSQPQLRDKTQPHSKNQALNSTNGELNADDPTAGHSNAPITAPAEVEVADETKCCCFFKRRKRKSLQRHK
Chain of EPHA5 (P54756 whole entry): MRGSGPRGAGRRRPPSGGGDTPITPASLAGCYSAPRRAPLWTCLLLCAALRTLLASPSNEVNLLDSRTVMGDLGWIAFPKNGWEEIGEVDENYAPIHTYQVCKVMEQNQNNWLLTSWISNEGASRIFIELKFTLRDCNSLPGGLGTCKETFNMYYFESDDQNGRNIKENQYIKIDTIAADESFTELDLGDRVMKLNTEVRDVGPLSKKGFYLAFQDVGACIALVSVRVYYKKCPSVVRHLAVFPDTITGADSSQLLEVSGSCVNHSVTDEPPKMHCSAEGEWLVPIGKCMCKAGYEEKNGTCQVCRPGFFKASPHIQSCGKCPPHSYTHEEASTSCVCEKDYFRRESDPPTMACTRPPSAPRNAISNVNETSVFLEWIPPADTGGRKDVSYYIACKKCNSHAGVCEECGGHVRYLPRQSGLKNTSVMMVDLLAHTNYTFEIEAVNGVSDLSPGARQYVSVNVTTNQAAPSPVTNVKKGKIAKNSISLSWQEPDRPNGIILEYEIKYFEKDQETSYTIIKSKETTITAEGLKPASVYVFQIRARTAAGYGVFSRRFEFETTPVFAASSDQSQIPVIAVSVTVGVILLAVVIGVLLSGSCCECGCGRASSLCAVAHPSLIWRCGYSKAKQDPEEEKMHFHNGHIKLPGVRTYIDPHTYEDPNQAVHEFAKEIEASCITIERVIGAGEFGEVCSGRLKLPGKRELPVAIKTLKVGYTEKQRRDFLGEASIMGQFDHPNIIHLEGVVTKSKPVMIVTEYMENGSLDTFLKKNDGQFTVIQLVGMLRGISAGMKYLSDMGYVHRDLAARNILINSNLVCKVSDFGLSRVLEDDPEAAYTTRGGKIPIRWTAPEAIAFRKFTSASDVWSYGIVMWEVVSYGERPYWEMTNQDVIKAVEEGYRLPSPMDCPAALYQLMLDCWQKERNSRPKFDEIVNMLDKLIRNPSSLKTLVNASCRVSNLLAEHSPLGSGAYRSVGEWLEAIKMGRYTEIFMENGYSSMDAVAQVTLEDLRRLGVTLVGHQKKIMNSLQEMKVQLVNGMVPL
Chain of FLT3(ITD) (P36888 564-993, stated change not applied): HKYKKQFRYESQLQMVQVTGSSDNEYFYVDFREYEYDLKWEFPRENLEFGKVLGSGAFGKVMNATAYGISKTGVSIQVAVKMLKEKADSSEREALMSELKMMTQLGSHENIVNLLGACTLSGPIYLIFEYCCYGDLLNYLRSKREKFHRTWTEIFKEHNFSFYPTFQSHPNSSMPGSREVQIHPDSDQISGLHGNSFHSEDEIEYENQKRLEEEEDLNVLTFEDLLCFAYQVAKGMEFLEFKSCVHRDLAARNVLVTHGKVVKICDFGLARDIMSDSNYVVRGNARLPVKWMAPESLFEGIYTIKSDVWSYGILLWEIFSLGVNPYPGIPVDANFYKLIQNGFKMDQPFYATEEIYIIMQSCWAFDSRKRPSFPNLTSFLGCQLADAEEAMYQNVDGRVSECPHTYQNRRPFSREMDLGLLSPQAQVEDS
Chain of EGFR(E746-A750del) (P00533 with tags, fused parts or gaps DEL746-750): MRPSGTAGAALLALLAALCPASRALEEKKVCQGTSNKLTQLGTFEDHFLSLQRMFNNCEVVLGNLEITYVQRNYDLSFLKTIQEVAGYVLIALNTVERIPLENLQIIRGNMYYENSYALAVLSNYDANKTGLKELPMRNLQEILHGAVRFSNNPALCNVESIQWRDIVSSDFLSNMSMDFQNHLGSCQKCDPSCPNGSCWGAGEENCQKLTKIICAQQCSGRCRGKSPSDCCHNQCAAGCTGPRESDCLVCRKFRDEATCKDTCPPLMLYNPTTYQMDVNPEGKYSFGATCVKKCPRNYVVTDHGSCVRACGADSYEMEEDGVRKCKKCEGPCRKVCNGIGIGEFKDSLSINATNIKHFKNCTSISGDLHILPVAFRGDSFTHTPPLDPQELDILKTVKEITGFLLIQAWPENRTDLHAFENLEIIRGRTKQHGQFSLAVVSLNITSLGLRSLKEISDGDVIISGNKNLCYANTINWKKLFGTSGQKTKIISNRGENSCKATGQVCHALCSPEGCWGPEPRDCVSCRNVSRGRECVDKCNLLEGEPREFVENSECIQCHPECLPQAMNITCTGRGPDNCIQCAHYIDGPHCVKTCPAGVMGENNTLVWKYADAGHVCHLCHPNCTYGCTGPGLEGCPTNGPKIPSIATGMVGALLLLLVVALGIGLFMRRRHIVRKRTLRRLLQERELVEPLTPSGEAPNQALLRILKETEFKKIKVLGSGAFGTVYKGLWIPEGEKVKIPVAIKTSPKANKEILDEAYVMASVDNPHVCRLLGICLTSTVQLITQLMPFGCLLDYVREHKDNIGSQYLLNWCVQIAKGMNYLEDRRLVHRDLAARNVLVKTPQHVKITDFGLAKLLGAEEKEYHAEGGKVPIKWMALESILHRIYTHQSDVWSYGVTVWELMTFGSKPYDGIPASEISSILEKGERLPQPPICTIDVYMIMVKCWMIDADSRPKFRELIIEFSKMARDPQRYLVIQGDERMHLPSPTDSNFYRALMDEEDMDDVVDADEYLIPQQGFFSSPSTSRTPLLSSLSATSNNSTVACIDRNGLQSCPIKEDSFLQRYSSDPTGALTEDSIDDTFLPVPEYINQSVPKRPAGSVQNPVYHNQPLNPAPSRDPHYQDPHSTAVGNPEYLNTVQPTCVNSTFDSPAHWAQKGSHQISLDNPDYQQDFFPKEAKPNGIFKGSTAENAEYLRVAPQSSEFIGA
Chain of GRK3 (P35626 whole entry): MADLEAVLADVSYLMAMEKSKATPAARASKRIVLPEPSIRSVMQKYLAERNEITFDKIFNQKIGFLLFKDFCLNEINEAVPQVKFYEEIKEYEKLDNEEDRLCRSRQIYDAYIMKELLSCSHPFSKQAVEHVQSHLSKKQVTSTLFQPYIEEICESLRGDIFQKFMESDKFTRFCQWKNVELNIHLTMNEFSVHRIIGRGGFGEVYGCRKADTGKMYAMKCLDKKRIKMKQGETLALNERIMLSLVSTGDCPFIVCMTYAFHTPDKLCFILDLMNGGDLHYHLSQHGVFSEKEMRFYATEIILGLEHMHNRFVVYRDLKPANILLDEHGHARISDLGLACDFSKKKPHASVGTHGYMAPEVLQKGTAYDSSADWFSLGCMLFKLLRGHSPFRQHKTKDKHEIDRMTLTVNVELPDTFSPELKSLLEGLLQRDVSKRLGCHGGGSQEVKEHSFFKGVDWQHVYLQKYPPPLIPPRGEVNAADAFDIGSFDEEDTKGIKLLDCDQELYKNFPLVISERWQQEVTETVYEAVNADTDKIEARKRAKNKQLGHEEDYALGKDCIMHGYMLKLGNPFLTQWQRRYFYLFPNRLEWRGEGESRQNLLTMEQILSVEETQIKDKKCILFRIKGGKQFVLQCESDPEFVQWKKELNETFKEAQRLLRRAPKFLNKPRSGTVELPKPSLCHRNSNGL
T3 sequence (O94768 whole entry): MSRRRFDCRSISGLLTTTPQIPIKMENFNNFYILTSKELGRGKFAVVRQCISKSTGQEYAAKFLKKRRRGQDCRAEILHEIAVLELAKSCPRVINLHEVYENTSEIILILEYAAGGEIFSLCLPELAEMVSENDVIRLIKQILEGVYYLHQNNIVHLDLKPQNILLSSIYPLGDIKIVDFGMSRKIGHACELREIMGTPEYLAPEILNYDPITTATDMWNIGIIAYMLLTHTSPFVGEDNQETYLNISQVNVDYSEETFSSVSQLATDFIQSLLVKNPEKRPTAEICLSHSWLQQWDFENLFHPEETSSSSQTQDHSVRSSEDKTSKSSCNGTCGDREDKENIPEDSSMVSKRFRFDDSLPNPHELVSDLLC
T1 sequence (Q15831 whole entry): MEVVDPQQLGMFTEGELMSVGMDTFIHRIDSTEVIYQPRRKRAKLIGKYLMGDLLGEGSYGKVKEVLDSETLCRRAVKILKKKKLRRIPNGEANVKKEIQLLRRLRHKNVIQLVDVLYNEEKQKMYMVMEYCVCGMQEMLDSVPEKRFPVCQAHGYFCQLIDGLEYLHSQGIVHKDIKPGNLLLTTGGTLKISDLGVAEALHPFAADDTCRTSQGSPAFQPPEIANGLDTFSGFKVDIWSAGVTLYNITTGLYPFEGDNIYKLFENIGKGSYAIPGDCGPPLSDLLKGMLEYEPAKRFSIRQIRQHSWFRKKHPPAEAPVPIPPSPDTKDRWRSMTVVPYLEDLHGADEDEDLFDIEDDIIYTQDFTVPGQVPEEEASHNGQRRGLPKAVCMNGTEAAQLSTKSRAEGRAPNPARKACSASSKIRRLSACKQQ

As to `c1ccc2c(c1)Sc1ccccc1N2CCN1CCOCC1` [J54], the remaining binding was determined as 97% on PIK3CA(E545A); 67% at STK36; 100% on MAP4K2; 91% at PRKX; 100% at EPHA5; 89% on LKB1. For the same compound, the remaining binding is 78% at CAMK2A; 93% at GRK3; 100% in assay [1]; 100% on MST1R; 83% on DRAK2; 94% at PIK3CA. Also, the remaining binding was 93% on CSNK1G2; 100% at MAP4K3; 100% on KIT(V559D,T670I); 97% at MYLK; 68% on FLT3(ITD); 76% at EGFR(E746-A750del).

Source of the values: article PMC7486443, “Generation of Phenothiazine with Potent Anti-TLK1 Activity for Prostate Cancer Therapy” (iScience, 2020).
